Like-named read-outs stand apart in the source and are kept apart here.
Experiments:
[1] = system: IL-17A in human whole blood; assay: IL-17A inhibition, human whole blood, TCR stimulation; assay type: cell-based; conditions: TCR stimulatory conditions, n = 10
Experimental: For whole blood assay the heparinized whole blood was diluted (1:1) with saline and added in 96-well plate pre-coated with human anti-CD3 mAb (10 µg/mL). Compound treatment was done for 30 min followed by co-stimulation with anti-CD28 mAb (2 µg/mL). After 48 h of incubation supernatant was used for IL-17 estimation by ELISA.

[2] = Toxicokinetics (blood), 14-day inhalation study in Sprague Dawley rats; assay type: in vivo, rat; conditions: for half-life / AUC(0-t) / Cmax / Tmax: inhaled or intranasal; for half-life / AUC(0-t) / Cmax: inhalation; for AUC(0-t): read-out: AUC0-tlast, mean (SE); for Cmax: read-out: Cmax, mean (SE)
Experimental: Rats were exposed to PCCR-1 aerosols at 3.4, 10.8 and 32.1 mg/kg/day (delivered dose) for 60 min daily for 14 days using a snout only exposure technique via a modular stainless steel flow past inhalation chamber at indicated doses as mentioned in Table 3. No treatment-related findings noted, including myeloid:erythroid (M:E) ratios in any dose levels except minimal changes in the reticulocytes and adrenal glands.
The TK assessment was done by measuring the concentrations of PCCR-1 in blood.
The toxicology study was done in SD (Sprague Dawley) rats that were exposed to PCCR-1 aerosol for 60 min daily at 3.4, 10.8 and 32.1 mg/kg/day (delivered dose) for 14 days using a snout only exposure technique via a modular stainless steel flow past inhalation chamber. A 60% w/w blend of PCCR-1 in Lactose LH201 was prepared by adding the appropriate amount of PCCR-1 to the appropriate amount of lactose. The estimated delivered doses were derived based on analytical aerosol concentration, and respiratory minute volume calculated based on body weight, exposure duration, and animal body weight (Supplementary section B).

[3] = system: Nuclear receptors (RORα, RARα, LXRα, LXRβ, RXR, FXR); assay: Cerep panel, nuclear receptors: binding assays; set-up: key: NSE No significant effect; V wk very weak (very low-level agonist activity seen with mPPARγ); conditions: at 10 µM
Description: Based on the homology of the ligand binding domains, 3 different isoforms of ROR (hRORα, hRORβ and hRORγ) are reported. Small variations in the LBD regions possibly lead to differences in competitive binding between the nuclear receptors of the ROR isoforms (Fig. 1b). Similar to the assessment of RORγ binding assay, TR-FRET binding assays were also used to assess the affinity of PCCR-1 for other ROR isoforms. […] This was reconfirmed in cellular functional assays for the selected isoforms and nuclear receptors using Gal4 DBD with luciferase reporter system from Indigo (PA, USA). […] In addition, both cellular agonist and antagonist effects as well as for enzyme activity were evaluated with a known reference compound for each target, using a radiolabeled method (Eurofins Cerep, France, Table 1).

[4] = both sexes, Sprague Dawley, rat, blood, 10.8 mg/kg/day, SD rat blood, 10.8 mg/kg/day, Day 1, Mean
[5] = both sexes, Sprague-Dawley, rat, blood, 3.4 mg/kg/day, SD rat blood, 3.4 mg/kg/day, Day 1, Mean
[6] = both sexes, Sprague-Dawley, rat, blood, 3.4 mg/kg/day, SD rat blood, 3.4 mg/kg/day, Day 14, Mean
[7] = both sexes, Sprague-Dawley, rat, in vivo, 32.1 mg/kg/day, SD rat blood, 32.1 mg/kg/day, Day 1, Mean
[8] = both sexes, Sprague-Dawley, rat, in vivo, 32.1 mg/kg/day, SD rat blood, 32.1 mg/kg/day, Day 14, Mean
[9] = both sexes, Sprague-Dawley, rat, whole blood, 10.8 mg/kg/day, SD rat blood, 10.8 mg/kg/day, Day 14, Mean
[10] = female, Sprague-Dawley, rat, blood, 3.4 mg/kg/day, SD rat blood, 3.4 mg/kg/day, Day 1, Female
[11] = female, Sprague-Dawley, rat, blood, 3.4 mg/kg/day, SD rat blood, 3.4 mg/kg/day, Day 14, Female
[12] = female, Sprague-Dawley, rat, blood, 10.8 mg/kg/day, SD rat blood, 10.8 mg/kg/day, Day 1, Female
[13] = female, Sprague-Dawley, rat, in vivo, 32.1 mg/kg/day, SD rat blood, 32.1 mg/kg/day, Day 1, Female
[14] = female, Sprague-Dawley, rat, in vivo, 32.1 mg/kg/day, SD rat blood, 32.1 mg/kg/day, Day 14, Female
[15] = female, Sprague-Dawley, rat, whole blood, 10.8 mg/kg/day, SD rat blood, 10.8 mg/kg/day, Day 14, Female
[16] = male, Sprague Dawley, rat, blood, 10.8 mg/kg/day, SD rat blood, 10.8 mg/kg/day, Day 1, Male
[17] = male, Sprague-Dawley, rat, blood, 3.4 mg/kg/day, SD rat blood, 3.4 mg/kg/day, Day 1, Male
[18] = male, Sprague-Dawley, rat, blood, 3.4 mg/kg/day, SD rat blood, 3.4 mg/kg/day, Day 14, Male
[19] = male, Sprague-Dawley, rat, in vivo, 32.1 mg/kg/day, SD rat blood, 32.1 mg/kg/day, Day 1, Male
[20] = male, Sprague-Dawley, rat, in vivo, 32.1 mg/kg/day, SD rat blood, 32.1 mg/kg/day, Day 14, Male
[21] = male, Sprague-Dawley, rat, whole blood, 10.8 mg/kg/day, SD rat blood, 10.8 mg/kg/day, Day 14, Male
[22] = rat blood, mid and high dose levels

CCn1c(C(C)(C)Oc2ccc(F)cc2F)nc2cc(NC(=O)Cc3ccc(S(=O)(=O)CC)cc3)ccc21 [PCCR-1]
IC50 [1]: 3.05 µM | half-life ([2]; Sprague-Dawley, in vivo, SD rat blood, 32.1 mg/kg/day, Day 1, Female): 6.9 h | half-life ([2]; Sprague-Dawley, in vivo, SD rat blood, 32.1 mg/kg/day, Day 1, Male): 6.8 h | AUC(0-t) [2, 4]: 5090 ng·h/mL | Cmax [2, 4]: 457 ng/mL | Tmax ([2]; both sexes, Sprague Dawley, rat, blood, 10.8 mg/kg/day, from start of inhalation dosing, SD rat blood, 10.8 mg/kg/day, Day 1, Mean): 3 h | half-life ([2]; both sexes, Sprague-Dawley, in vivo, SD rat blood, 32.1 mg/kg/day, Day 1, Mean): 6.8 h | AUC(0-t) [2, 5]: 982 ng·h/mL | Cmax [2, 5]: 189 ng/mL | half-life [2, 6]: 6.4 h | AUC(0-t) [2, 6]: 2560 ng·h/mL | Cmax [2, 6]: 215 ng/mL | Tmax ([2]; both sexes, Sprague-Dawley, rat, blood, 3.4 mg/kg/day, from start of inhalation dosing, SD rat blood, 3.4 mg/kg/day, Day 1, Mean): 3 h | Tmax ([2]; both sexes, Sprague-Dawley, rat, blood, 3.4 mg/kg/day, from start of inhalation dosing, SD rat blood, 3.4 mg/kg/day, Day 14, Mean): 4 h | AUC(0-t) [2, 7]: 7440 ng·h/mL | Cmax [2, 7]: 735 ng/mL | AUC(0-t) [2, 8]: 12200 ng·h/mL | Cmax [2, 8]: 1020 ng/mL | half-life ([2]; both sexes, Sprague-Dawley, rat, whole blood, 10.8 mg/kg/day, SD rat blood, 10.8 mg/kg/day, Day 1, Mean): 5.9 h | half-life [2, 9]: 5.1 h | AUC(0-t) [2, 9]: 6750 ng·h/mL | Cmax [2, 9]: 519 ng/mL | Tmax ([2]; both sexes, Sprague-Dawley, rat, whole blood, 10.8 mg/kg/day, from start of inhalation dosing, SD rat blood, 10.8 mg/kg/day, Day 14, Mean): 4 h | tlast ([2]; both, Sprague-Dawley, rat, in vivo, 3.4 mg/kg/day): 25.0 h | tlast ([2]; both, Sprague-Dawley, rat, in vivo, 10.8 mg/kg/day): 25.0 h | AUC(0-t) [2, 10]: 1000 ng·h/mL | Cmax [2, 10]: 202 ng/mL | AUC(0-t) [2, 11]: 2610 ng·h/mL | Cmax [2, 11]: 241 ng/mL | Tmax ([2]; female, Sprague-Dawley, rat, blood, 3.4 mg/kg/day, from start of inhalation dosing, SD rat blood, 3.4 mg/kg/day, Day 1, Female): 3 h | Tmax ([2]; female, Sprague-Dawley, rat, blood, 3.4 mg/kg/day, from start of inhalation dosing, SD rat blood, 3.4 mg/kg/day, Day 14, Female): 5 h | half-life [2, 12]: 5.8 h | AUC(0-t) [2, 12]: 7270 ng·h/mL | Cmax [2, 12]: 544 ng/mL | Tmax ([2]; female, Sprague-Dawley, rat, blood, 10.8 mg/kg/day, from start of inhalation dosing, SD rat blood, 10.8 mg/kg/day, Day 1, Female): 3 h | tlast ([2]; female, Sprague-Dawley, rat, in vivo, 3.4 mg/kg/day): 25.0 h | tlast ([2]; female, Sprague-Dawley, rat, in vivo, 10.8 mg/kg/day): 25.0 h | AUC(0-t) [2, 13]: 9470 ng·h/mL | Cmax [2, 13]: 936 ng/mL | AUC(0-t) [2, 14]: 16200 ng·h/mL | Cmax [2, 14]: 1150 ng/mL | half-life [2, 15]: 5.1 h | AUC(0-t) [2, 15]: 8050 ng·h/mL | Cmax [2, 15]: 679 ng/mL | Tmax ([2]; female, Sprague-Dawley, rat, whole blood, 10.8 mg/kg/day, from start of inhalation dosing, SD rat blood, 10.8 mg/kg/day, Day 14, Female): 3 h | tlast ([2]; from start of inhalation dosing, SD rat blood, 3.4 mg/kg/day, Day 1, Female): 9.0 h | tlast ([2]; from start of inhalation dosing, SD rat blood, 3.4 mg/kg/day, Day 1, Male): 9.0 h | tlast ([2]; from start of inhalation dosing, SD rat blood, 3.4 mg/kg/day, Day 1, Mean): 9.0 h | tlast ([2]; from start of inhalation dosing, SD rat blood, 32.1 mg/kg/day, Day 1, Female): 25.0 h | tlast ([2]; from start of inhalation dosing, SD rat blood, 32.1 mg/kg/day, Day 1, Male): 25.0 h | tlast ([2]; from start of inhalation dosing, SD rat blood, 32.1 mg/kg/day, Day 1, Mean): 25.0 h | tlast ([2]; from start of inhalation dosing, SD rat blood, 32.1 mg/kg/day, Day 14, Female): 25.0 h | tlast ([2]; from start of inhalation dosing, SD rat blood, 32.1 mg/kg/day, Day 14, Male): 25.0 h | tlast ([2]; from start of inhalation dosing, SD rat blood, 32.1 mg/kg/day, Day 14, Mean): 25.0 h | half-life [2, 16]: 6 h | AUC(0-t) [2, 16]: 2910 ng·h/mL | Cmax [2, 16]: 370 ng/mL | Tmax ([2]; male, Sprague Dawley, rat, blood, 10.8 mg/kg/day, from start of inhalation dosing, SD rat blood, 10.8 mg/kg/day, Day 1, Male): 3 h | tlast ([2]; male, Sprague Dawley, rat, in vivo, 10.8 mg/kg/day): 25.0 h | AUC(0-t) [2, 17]: 963 ng·h/mL | Cmax [2, 17]: 177 ng/mL | half-life [2, 18]: 6.4 h | AUC(0-t) [2, 18]: 2500 ng·h/mL | Cmax [2, 18]: 190 ng/mL | Tmax ([2]; male, Sprague-Dawley, rat, blood, 3.4 mg/kg/day, from start of inhalation dosing, SD rat blood, 3.4 mg/kg/day, Day 1, Male): 3 h | Tmax ([2]; male, Sprague-Dawley, rat, blood, 3.4 mg/kg/day, from start of inhalation dosing, SD rat blood, 3.4 mg/kg/day, Day 14, Male): 3 h | tlast ([2]; male, Sprague-Dawley, rat, in vivo, 3.4 mg/kg/day): 25.0 h | tlast ([2]; male, Sprague-Dawley, rat, in vivo, 10.8 mg/kg/day): 25.0 h | AUC(0-t) [2, 19]: 5410 ng·h/mL | Cmax [2, 19]: 534 ng/mL | AUC(0-t) [2, 20]: 8230 ng·h/mL | Cmax [2, 20]: 885 ng/mL | AUC(0-t) [2, 21]: 5440 ng·h/mL | Cmax [2, 21]: 359 ng/mL | Tmax ([2]; male, Sprague-Dawley, rat, whole blood, 10.8 mg/kg/day, from start of inhalation dosing, SD rat blood, 10.8 mg/kg/day, Day 14, Male): 5 h | AUC in blood accumulation relative to day-1 ([2]; once-daily inhalation for 14 days, except female rats at 10.8 mg/kg/day): 1.5–2.6 fold | AUC in females higher than males [2, 22]: 1.5–2.5 fold | Cmax in females higher than males [2, 22]: 1.3–1.9 fold | Nuclear receptors: binding assays (RORα, RARα, LXRα, LXRβ, RXR, FXR) [3]: NSE at 10 µM

Source: paper PMC9130233, “An inhibitor of RORγ for chronic pulmonary obstructive disease treatment” (Scientific Reports, 2022)
